Source: the NIST ThermoML archive (doi:10.1021/je300557g)
Numbers after ± are expanded uncertainties.

Key:
[1] = 101.33 kPa, Liquid; for viscosity: Capillary tube (Ostwald / Ubbelohde) method; for mass density: Vibrating tube method
[2] = xn = mol fraction of the nth substance listed; conditions: 101 kPa, Liquid; for mass density: Vibrating tube method

CCCC[n+]1cccc(C)c1.F[B-](F)(F)F [1-butyl-3-methylpyridinium tetrafluoroborate]
[1]
Conditions	mass density [kg/m3]	viscosity [mPa·s]
293.15 K	1185.66 ± 0.4	246.62 ± 6.8
303.15 K	1178.86 ± 0.4	129.91 ± 2.4
313.15 K	1172.11 ± 0.39	76.46 ± 1
323.15 K	1165.37 ± 0.39	48.18 ± 0.57

CCCC[n+]1ccc(C)cc1.F[B-](F)(F)F [1-butyl-4-methylpyridinium tetrafluoroborate]
[1]
Conditions	mass density [kg/m3]	viscosity [mPa·s]
293.15 K	1185.92 ± 0.4	284.62 ± 8.5
303.15 K	1179.12 ± 0.4	144.68 ± 2.9
313.15 K	1172.12 ± 0.39	85.53 ± 1.2
323.15 K	1165.52 ± 0.39	55.53 ± 0.63

CCCC[n+]1ccccc1.F[B-](F)(F)F [1-butylpyridinium tetrafluoroborate]
[1]
Conditions	mass density [kg/m3]	viscosity [mPa·s]
293.15 K	1217.11 ± 0.42	220.54 ± 5.7
303.15 K	1210.83 ± 0.42	119.52 ± 2.1
313.15 K	1203.72 ± 0.42	71.11 ± 0.89
323.15 K	1196.68 ± 0.41	45.59 ± 0.54

CCCC[n+]1ccccc1.F[B-](F)(F)F [1-butylpyridinium tetrafluoroborate] + CCO
[2]
Conditions	kinematic viscosity, 303.15 K [m2/s]	kinematic viscosity, 313.15 K [m2/s]	kinematic viscosity, 323.15 K [m2/s]	mass density, 303.15 K [kg/m3]	mass density, 313.15 K [kg/m3]	mass density, 323.15 K [kg/m3]
x1 = 0.0482	1.42e-06 ± 2.1e-08	1.29e-06 ± 1.9e-08	1.15e-06 ± 1.8e-08	843.38 ± 0.32	834.98 ± 0.32	826.69 ± 0.32
x1 = 0.0945	1.96e-06 ± 2.9e-08	1.68e-06 ± 2.5e-08	1.41e-06 ± 2.1e-08	892.42 ± 0.29	884.28 ± 0.29	876.45 ± 0.3
x1 = 0.1932	3.17e-06 ± 4.6e-08	2.57e-06 ± 3.8e-08	2.06e-06 ± 3.1e-08	972.49 ± 0.27	964.73 ± 0.27	957.44 ± 0.28
x1 = 0.2702	4.37e-06 ± 6.3e-08	3.45e-06 ± 5e-08	2.73e-06 ± 4e-08	1019.05 ± 0.25	1011.49 ± 0.25	1004.32 ± 0.25
x1 = 0.3959	7.13e-06 ± 9.9e-08	5.43e-06 ± 7.8e-08	4.24e-06 ± 6.2e-08	1076.24 ± 0.27	1068.89 ± 0.27	1061.7 ± 0.27
x1 = 0.4954	1.03e-05 ± 1.4e-07	7.61e-06 ± 1.1e-07	5.94e-06 ± 8.5e-08	1110.49 ± 0.28	1103.28 ± 0.28	1096.06 ± 0.28
x1 = 0.5999	1.57e-05 ± 2.1e-07	1.14e-05 ± 1.6e-07	8.55e-06 ± 1.2e-07	1139.33 ± 0.31	1132.29 ± 0.31	1125.08 ± 0.3
x1 = 0.699	2.36e-05 ± 3.2e-07	1.65e-05 ± 2.2e-07	1.2e-05 ± 1.7e-07	1161.67 ± 0.33	1154.79 ± 0.33	1147.65 ± 0.33
x1 = 0.7963	3.58e-05 ± 4.8e-07	2.41e-05 ± 3.2e-07	1.7e-05 ± 2.3e-07	1179.99 ± 0.36	1173.24 ± 0.36	1166.21 ± 0.35
x1 = 0.8477	4.48e-05 ± 6e-07	2.95e-05 ± 3.9e-07	2.05e-05 ± 2.8e-07	1188.5 ± 0.37	1181.82 ± 0.37	1174.82 ± 0.37
x1 = 0.8984	5.83e-05 ± 7.1e-07	3.73e-05 ± 5e-07	2.53e-05 ± 3.4e-07	1196.25 ± 0.39	1189.62 ± 0.38	1182.65 ± 0.38
x1 = 0.9461	7.37e-05 ± 1.2e-06	4.58e-05 ± 6.2e-07	3.05e-05 ± 4.1e-07	1203.06 ± 0.4	1196.46 ± 0.4	1189.47 ± 0.39

CCO [ethanol]
[1]
Conditions	mass density [kg/m3]	viscosity [mPa·s]
293.15 K	789.48 ± 0.24	1.18 ± 0.014
303.15 K	781.3 ± 0.24	0.981 ± 0.011
313.15 K	772.57 ± 0.24	0.822 ± 0.0097
323.15 K	763.65 ± 0.25	0.6939 ± 0.0083

CO [methanol]
[1]
Conditions	mass density [kg/m3]	viscosity [mPa·s]
293.15 K	791.24 ± 0.23	0.5833 ± 0.0069
303.15 K	781.81 ± 0.23	0.507 ± 0.006
313.15 K	772.29 ± 0.24	0.4438 ± 0.0053
323.15 K	762.63 ± 0.24	0.3873 ± 0.0047
